Measurements published in patent US7714173B2, “Method for purifying terephthalaldehyde” (LG Chem, Ltd., priority 2006, dated 2010).
In brackets after ≈: the same amount, converted by molar mass. One block for each molecule: values may come before it.

How the values were obtained:
[1] = Solubility of terephthalaldehyde and major impurities in water and dimethylsulfoxide; details: solvent H2O, measured at 25° C.
[2] = Stability of terephthalaldehyde in the dissolving solvent; type: physicochemical
Text: In a method for purifying terephthalaldehyde which comprises dissolving crude terephthalaldehyde in a solvent and then re-crystallizing the solution, using an anti-solvent, the present invention is characterized by using dimethylsulfoxide as the solvent. In the method for purifying terephthalaldehyde according to the present invention, usual alcohols or ethers may be used as a solvent dissolving terephthalaldehyde. However, dimethylsulfoxide according to the present invention has more excellent solubility of terephthalaldehyde and major impurities than those of the alcohols or the ethers, and may prepare terephthalaldehyde in a higher yield and purity.

[3] = 25 °C, organic solvent or mixture

solubility (physchem; dimethylsulfoxide (DMSO), 25 °C, organic solvent or mixture): 1000 mg/mL (≈ 6660 mM)
solubility (physchem; water, 25 °C): < 1.67 mg/mL
Compound: O=Cc1ccc(C(=O)O)cc1 [4-CBA, 4-carboxybenzaldehyde]

solubility (physchem; [3]): 1000 mg/mL (≈ 9080 mM)
solubility (physchem; 25 °C, water): 20 mg/mL (≈ 182 mM)
Compound: Oc1ccc(O)cc1 [HQ, hydroquinone]

Solubility in H2O [1]: <1.67 mg/mL
Compound: O=C(O)c1ccc(C(=O)O)cc1 [TPA, terphthalic acid]

Further lines, the molecule ahead of its results:

Compound: O=Cc1ccc(O)cc1 [4-HBA, 4-hydroxybenzaldehyde]
solubility (physchem; [3]): 1000 mg/mL (≈ 8190 mM)
solubility (physchem; 25 °C, water): 2.5 mg/mL (≈ 20.5 mM)

Compound: O=Cc1ccc(C=O)cc1 [terephthalaldehyde]
Stability in alcohols such as methanol ([2]; alcohols such as methanol as solvent): changed into a material such as acetal
Stability in dimethylsulfoxide ([2]; dimethylsulfoxide as solvent): such change is not occurred
